# Measured values: patent US20150064221A1, “COMPOUNDS HAVING IMMUNOMUDULATOR ACTIVITY” (priority 2012, published 2015)
# Legend:
# [1] = system: splenic mononuclear cells (SMNC); assay: Ex vivo proliferation and cytokine synthesis of SMNC from treated mice; assay type: cell-based
# Method: These experiments were carried out to explore if intraperitoneal (i.p.) or oral administration (p.o.) in mice with VGX-1027 could influence the proliferative response of SMNC and the production of IL-1β, IL-10, TNF-α, IFN-γ and MIF from isolated PM and SMNC. PM and SMNC isolated from mice treated in vivo with VGX-1027 for 7 consecutive days intraperitoneally (0.5 mg/mouse), or orally (2.5 mg/mouse), or isolated from control animals that received VGX-1027 vehicle (Na2HPO4/H2O), or were without any treatment. 24 h after the last VGX-1027 treatment, PM and SMNC were collected for further in vitro stimulation and analysis.
# PBMCs = assay: Transcriptional profile analysis (microarray) of LPS-stimulated PBMCs; assay type: cell-based, human; set-up: mean/difference of means: scale not given here; details: for mean/difference of means: VGX-treated vs LPS stimulated group
# Method: Transcriptional profile analysis: PBMCs from three individual healthy donors, obtained from the University of Pennsylvania School of Medicine, Immunology Clinical Core. Cells (5×10̂6) were treated with either LPS (5 μg/ml), LPS (5 μg/ml)+VGX-1027 (10 uM) or PBS for 48 hours and subsequently, RNA was extracted using the RNeasy kit (Qiagen) following manufacturer's instructions.
# RNA was hybridized to the Human Gene 1.0 ST array (Affymetrix). Microarray data were analyzed using the web-based utility Expression Profiler (http://www.ebi.ac.uk/expressionprofiler/). Data normalization was achieved by performing logarithmic transformation of all intensities followed by gene mean-centering. Multiple array probes were collapsed by averaging the intensities. Principal component analysis (PCA) was conducted on all genes to assign the general variability in the data to a reduced set of variables. Gene expression differences were assessed by means of Student's t test, and genes with a p<0.01 were considered differentially expressed. Selected genes were subjected to K-means clustering, using Euclidean distance as correlation measurement, and gene ontology (GO) analysis was performed using the Database for Annotation, Visualization and Integrated Discovery (DAVID) tool. Hierarchical clustering of selected genes was performed using Euclidean distance measurements as similarity comparison.
# [2] = system: undifferentiated CD4 T cells; assay: Proliferation of undifferentiated CD4 T cells; assay type: cell-based
# Method: (A) Cell viability was measured via the MTT assay after 48 hours of treatment. (B) TNF-α levels were measured 48 hours post LPS (5 μg/ml) stimulation. (C) CD4 T cells were stimulated with either ConA (10 μg/ml) or anti-CD3/CD28 beads (10 μg/ml), and proliferation was measured via 3H-thymidine incorporation.
smiles,measurement,setting,value
"O=C(O)CC1CC(c2ccccc2)=NO1 (stereo not drawn) [VGX-1027, 3-phenyl-4,5-dihydro-5-isoxazoleacetic acid]",IFN-γ production,[1],normal capacity
same,IL-1 β production,[1],normal capacity
same,IL-10 production,[1],normal capacity
same,MIF expression,[1],normal expression pattern
same,TNF-α production,[1],normal capacity
same,capacity to proliferate,[1]; mice treated 7 days,normal capacity
same,genes in cluster strongly downregulated upon treatment,PBMCs; K-means clustering,525
same,genes modulated relative to LPS,"PBMCs; LPS 5 μg/ml + 10 uM, 48 hours",895
same,mean/difference of means,"PBMCs; gene 7912155, most down-regulated genes",0.111
same,mean/difference of means,"PBMCs; gene 7923965, most down-regulated genes",0.439
same,mean/difference of means,"PBMCs; gene 7945084, most down-regulated genes",0.165
same,mean/difference of means,"PBMCs; gene 7997245, most up-regulated genes",−0.0599
same,mean/difference of means,"PBMCs; gene 8007069, most down-regulated genes",0.074
same,mean/difference of means,"PBMCs; gene 8017100, most down-regulated genes",0.108
same,mean/difference of means,"PBMCs; gene 8028281, most down-regulated genes",0.0791
same,mean/difference of means,"PBMCs; gene 8043441, most up-regulated genes",−0.406
same,mean/difference of means,"PBMCs; gene 8077169, most down-regulated genes",0.153
same,mean/difference of means,"PBMCs; gene 8094946, most down-regulated genes",0.07
same,mean/difference of means,"PBMCs; gene 8102775, most down-regulated genes",0.101
same,mean/difference of means,"PBMCs; gene 8104068, most down-regulated genes",0.118
same,mean/difference of means,"PBMCs; gene 8134024, most down-regulated genes",0.0796
same,mean/difference of means,"PBMCs; gene 8135943, most down-regulated genes",0.406
same,mean/difference of means,"PBMCs; gene 8136446, most up-regulated genes",−0.146
same,mean/difference of means,"PBMCs; gene 8140035, most down-regulated genes",0.388
same,mean/difference of means,"PBMCs; gene 8150101, most up-regulated genes",−0.237
same,mean/difference of means,"PBMCs; gene 8153835, most down-regulated genes",0.0829
same,mean/difference of means,"PBMCs; gene 8160555, most down-regulated genes",0.171
same,mean/difference of means,"PBMCs; gene ADAM19, most up-regulated genes",−0.176
same,mean/difference of means,"PBMCs; gene AIM2, most up-regulated genes",−0.221
same,mean/difference of means,"PBMCs; gene ALKBH5, most down-regulated genes",0.0698
same,mean/difference of means,"PBMCs; gene APOBEC3G, most up-regulated genes",−0.239
same,mean/difference of means,"PBMCs; gene ATXN10, most up-regulated genes",−0.131
same,mean/difference of means,"PBMCs; gene BLNK, most up-regulated genes",−0.398
same,mean/difference of means,"PBMCs; gene BOLA3, most up-regulated genes",−0.118
same,mean/difference of means,"PBMCs; gene C1orf2, most down-regulated genes",0.106
same,mean/difference of means,"PBMCs; gene C11orf53, most down-regulated genes",0.184
same,mean/difference of means,"PBMCs; gene C20orf173, most down-regulated genes",0.14
same,mean/difference of means,"PBMCs; gene CABYR, most down-regulated genes",0.135
same,mean/difference of means,"PBMCs; gene CCKBR, most down-regulated genes",0.0588
same,mean/difference of means,"PBMCs; gene CCL8, most up-regulated genes",−1.08
same,mean/difference of means,"PBMCs; gene CD22, most up-regulated genes",−0.453
same,mean/difference of means,"PBMCs; gene CD38, most up-regulated genes",−0.468
same,mean/difference of means,"PBMCs; gene CHML, most up-regulated genes",−0.24
same,mean/difference of means,"PBMCs; gene CIZ1, most down-regulated genes",0.0416
same,mean/difference of means,"PBMCs; gene CLIC5, most up-regulated genes",−0.175
same,mean/difference of means,"PBMCs; gene CLU, most up-regulated genes",−0.218
same,mean/difference of means,"PBMCs; gene CPA3, most up-regulated genes",−0.669
same,mean/difference of means,"PBMCs; gene CYTH1, most down-regulated genes",0.0452
same,mean/difference of means,"PBMCs; gene DNAH1, most up-regulated genes",−0.134
same,mean/difference of means,"PBMCs; gene EDN2, most down-regulated genes",0.0391
same,mean/difference of means,"PBMCs; gene EGR4, most down-regulated genes",0.129
same,mean/difference of means,"PBMCs; gene EOMES, most up-regulated genes",−0.0887
same,mean/difference of means,"PBMCs; gene ETNK2, most down-regulated genes",0.278
same,mean/difference of means,"PBMCs; gene FAM108C1, most down-regulated genes",0.0544
same,mean/difference of means,"PBMCs; gene FAS, most up-regulated genes",−0.12
same,mean/difference of means,"PBMCs; gene FCRL1, most up-regulated genes",−0.301
same,mean/difference of means,"PBMCs; gene FNBP1L, most down-regulated genes",0.203
same,mean/difference of means,"PBMCs; gene FUK, most down-regulated genes",0.0866
same,mean/difference of means,"PBMCs; gene GATAD1, most down-regulated genes",0.0258
same,mean/difference of means,"PBMCs; gene GEN1, most up-regulated genes",−0.368
same,mean/difference of means,"PBMCs; gene GGTLC2, most down-regulated genes",0.179
same,mean/difference of means,"PBMCs; gene HAGH, most down-regulated genes",0.0712
same,mean/difference of means,"PBMCs; gene HISPPD2A, most down-regulated genes",0.0217
same,mean/difference of means,"PBMCs; gene HSPA12B, most down-regulated genes",0.0281
same,mean/difference of means,"PBMCs; gene KARS, most up-regulated genes",−0.126
same,mean/difference of means,"PBMCs; gene KCTD10, most up-regulated genes",−0.0613
same,mean/difference of means,"PBMCs; gene KLF3, most down-regulated genes",0.115
same,mean/difference of means,"PBMCs; gene KLF10, most up-regulated genes",−0.11
same,mean/difference of means,"PBMCs; gene KLHDC4, most up-regulated genes",−0.0727
same,mean/difference of means,"PBMCs; gene LARS2, most up-regulated genes",−0.176
same,mean/difference of means,"PBMCs; gene LCP2, most up-regulated genes",−0.0536
same,mean/difference of means,"PBMCs; gene LRRC8D, most down-regulated genes",0.139
same,mean/difference of means,"PBMCs; gene LYRM4, most up-regulated genes",−0.294
same,mean/difference of means,"PBMCs; gene MAGOH, most up-regulated genes",−0.1
same,mean/difference of means,"PBMCs; gene MOV10L1, most down-regulated genes",0.0753
same,mean/difference of means,"PBMCs; gene MRPL15, most up-regulated genes",−0.147
same,mean/difference of means,"PBMCs; gene MRPS35, most up-regulated genes",−0.164
same,mean/difference of means,"PBMCs; gene NDUFA4, most up-regulated genes",−0.0638
same,mean/difference of means,"PBMCs; gene NLN, most up-regulated genes",−0.217
same,mean/difference of means,"PBMCs; gene OAS3, most up-regulated genes",−0.134
same,mean/difference of means,"PBMCs; gene OFCC1, most down-regulated genes",0.0379
same,mean/difference of means,"PBMCs; gene PAH, most down-regulated genes",0.0906
same,mean/difference of means,"PBMCs; gene PAK1IP1, most up-regulated genes",−0.271
same,mean/difference of means,"PBMCs; gene PGDS, most up-regulated genes",−0.708
same,mean/difference of means,"PBMCs; gene RGS1, most up-regulated genes",−0.294
same,mean/difference of means,"PBMCs; gene RPE, most up-regulated genes",−0.116
same,mean/difference of means,"PBMCs; gene SERPINI1, most down-regulated genes",0.187
same,mean/difference of means,"PBMCs; gene SH3PXD2A, most down-regulated genes",0.0515
same,mean/difference of means,"PBMCs; gene SLC38A2, most down-regulated genes",0.0979
same,mean/difference of means,"PBMCs; gene SNORA24, most up-regulated genes",−0.212
same,mean/difference of means,"PBMCs; gene SNRNP70, most down-regulated genes",0.0617
same,mean/difference of means,"PBMCs; gene SNX6, most up-regulated genes",−0.0607
same,mean/difference of means,"PBMCs; gene SPAG7, most up-regulated genes",−0.149
same,mean/difference of means,"PBMCs; gene SRFBP1, most up-regulated genes",−0.124
same,mean/difference of means,"PBMCs; gene TCL1A, most up-regulated genes",−0.442
same,mean/difference of means,"PBMCs; gene TNFRSF17, most up-regulated genes",−0.295
same,mean/difference of means,"PBMCs; gene TRABD, most down-regulated genes",0.0439
same,mean/difference of means,"PBMCs; gene TSN, most up-regulated genes",−0.105
same,mean/difference of means,"PBMCs; gene TUSC3, most down-regulated genes",0.0955
same,mean/difference of means,"PBMCs; gene TXNRD1, most down-regulated genes",0.117
same,mean/difference of means,"PBMCs; gene UAP1L1, most down-regulated genes",0.0398
same,mean/difference of means,"PBMCs; gene VIPR1, most down-regulated genes",0.123
same,mean/difference of means,"PBMCs; gene WARS2, most up-regulated genes",−0.246
same,mean/difference of means,"PBMCs; gene WDR70, most up-regulated genes",−0.0908
same,mean/difference of means,"PBMCs; gene YPEL2, most down-regulated genes",0.183
same,mean/difference of means,"PBMCs; gene ZNF596, most up-regulated genes",−0.432
same,mean/difference of means,"PBMCs; gene ZNF746, most down-regulated genes",0.0386
same,mean/difference of means,"PBMCs; gene hCG_2024410, most up-regulated genes",−0.102
same,proliferation,[2]; CD3/CD28 stimulation,affected neither
same,INF-γ production,[2]; ConA stimulation,affected neither
same,proliferation,[2]; ConA stimulation,affected neither
